Assays:
[1] = system: blood IL-2 levels induced by SEB; experiment: In vivo model: mouse SEB/IL-2; design: species or system BALB/c mice; conditions: 100 mg/kg po, serum IL-2 two hours after SEB
Procedure: The compound to be tested is administered to BALB/c mice followed e.g. 1 h later, by an intravenous administration of 3 µg per mouse of SEB to induce a rise in blood IL-2 levels. Two hours after the administration of SEB, mice are bled, and levels of IL-2 are measured in the serum using standard methods. Under control conditions (vehicle only) IL-2 concentrations measured are mostly in the range of 2000 to 8000 pg/ml.

Lck = Lck (Homo sapiens, UniProt P06239); experiment: Biochemical Lck kinase assay (TR-FRET, LANCE)
Chain of Lck (P06239 whole entry, species assumed): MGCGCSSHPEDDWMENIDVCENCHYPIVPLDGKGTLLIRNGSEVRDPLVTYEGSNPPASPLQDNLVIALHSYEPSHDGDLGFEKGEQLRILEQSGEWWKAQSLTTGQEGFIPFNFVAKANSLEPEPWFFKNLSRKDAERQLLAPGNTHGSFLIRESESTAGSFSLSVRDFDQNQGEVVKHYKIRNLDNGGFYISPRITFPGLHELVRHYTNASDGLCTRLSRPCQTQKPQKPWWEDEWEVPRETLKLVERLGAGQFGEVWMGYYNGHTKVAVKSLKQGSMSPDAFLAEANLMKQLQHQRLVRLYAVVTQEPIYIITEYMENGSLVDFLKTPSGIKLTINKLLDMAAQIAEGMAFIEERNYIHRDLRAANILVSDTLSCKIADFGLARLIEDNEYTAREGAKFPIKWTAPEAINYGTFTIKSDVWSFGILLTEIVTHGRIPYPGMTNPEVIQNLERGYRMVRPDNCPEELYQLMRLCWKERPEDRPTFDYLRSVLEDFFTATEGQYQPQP

| SMILES | inhibits the secretion of IL-2 [1] | IC50 (Lck) |
| --- | --- | --- |
| CC(C)COC(=O)Nc1ccc(-c2cnc3c(-c4ccc(N5CCN(C)CC5)cc4)cnn3c2N)cc1 [Example 10, (4-{7-Amino-3-[4-(4-methyl-piperazin-1-yl)-phenyl]-pyrazolo[1,5-a]pyrimidin-6-yl}-phenyl)-carbamic acid isobutyl ester] | 59% | 10 nM |
| Cc1cccc(OC(=O)Nc2ccc(-c3cnc4c(-c5cccc(N6CCN(C)CC6)c5)cnn4c3N)cc2)c1C [Example 65] |  | 25 nM |
| CCc1ccc(OC(=O)Nc2ccc(-c3cnc4c(-c5cccc(N6CCN(C)CC6)c5)cnn4c3N)cc2)cc1 [Example 77] |  | 25 nM |
| Cc1ccc(NC(=O)Nc2ccc(-c3cnc4c(-c5cccc(N6CCN(C)CC6)c5)cnn4c3N)cc2)cc1 [Example 126] |  | 15 nM |
| Cc1ccc([C@H](C)NC(=O)Nc2ccc(-c3cnc4c(-c5cccc(N6CCN(C)CC6)c5)cnn4c3N)cc2)cc1 [Example 172] |  | 34 nM |

Reference: patent publication US20100029636A1, “Lck inhibitors” (priority 2006, published 2010)
